Numbered stars: 1 amine (or outer) side, 2 acyl side, 3 side chain; on linkers, the order of the positions; unused ones are H or OH. Square brackets hold non-standard residues; d marks the D form. Ends that are not written are not given here. Peptide text beside a SMILES is read from it. 2Furoyl(5-aminomethyl) = O=C(c1ccc(CN[*:1])o1)[*:2]; Aib = CC(C)(N)C(=O)O
Columns and labels:
GLP-1R = target: T1, GLP-1R (Homo sapiens, UniProt P43220); test: In vitro receptor functional assay (cAMP) in CHO/GLP-1R cells; assay type: cell-based; conditions: intracellular cAMP, 30 min with 1 mM IBMX
T1 construct: expressed in transfected cells; host or cells: CHO/GLP-1R cells
T1 sequence (P43220 24-463, species assumed): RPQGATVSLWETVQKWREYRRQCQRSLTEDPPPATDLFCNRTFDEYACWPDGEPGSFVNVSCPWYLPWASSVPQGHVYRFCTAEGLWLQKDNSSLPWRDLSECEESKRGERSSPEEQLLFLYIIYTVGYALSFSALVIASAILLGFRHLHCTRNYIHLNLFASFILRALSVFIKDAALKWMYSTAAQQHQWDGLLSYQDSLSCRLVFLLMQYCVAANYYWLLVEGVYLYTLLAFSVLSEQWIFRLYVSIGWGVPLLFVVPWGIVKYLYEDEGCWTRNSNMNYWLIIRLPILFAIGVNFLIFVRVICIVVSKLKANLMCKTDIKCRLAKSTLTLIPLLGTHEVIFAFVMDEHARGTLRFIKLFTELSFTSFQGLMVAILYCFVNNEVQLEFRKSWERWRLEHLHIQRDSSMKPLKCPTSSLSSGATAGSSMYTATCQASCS
Text: cAMP is a ubiquitous cellular second messenger that is critical component of a signal transduction pathway linking membrane receptors and their ligands to the activation of internal cellular enzymatic activity and gene expression. cAMP is synthesized from ATP by membrane bound adenylate cyclase in a very regulated manner. In its simpler form, binding of a ligand, such as hormone or drug, to its specific G protein coupled receptor can either stimulate or inhibit adenylate cyclase depending on the GPCR being activated. […] Therefore the relative concentration of cAMP serves as a means to monitor the activity of GPCRs at the cell surface.
CHO/GLP-1R Cell Culture—CHO/GLP-1R Cells were maintained in Ham's F-12 medium containing 10% Fetal bovine serum and 1% penicillin-streptomycin antibiotic solution at 37° C. in a 5% CO2 incubator.
Cells were washed twice with PBS (pH-7.2) and incubated with 100 μl Ham's F-12 serum free medium supplemented with 0.1% BSA for 2 hr at 37° C. in 5% CO2 incubator. Cells were then incubated in 100 μl Ham's F-12 serum free medium supplemented with 0.1% BSA with 1 mM IBMX in the presence as well as absence of the peptides as per present invention in different concentration (10 nM, 1 nM, 100 pM & 10 pM). The reaction was stopped 30 min later by washing the intact cells three times with ice cold PBS (pH-7.2). The intracellular cAMP was extracted by incubating the cells in 100 μl 0.1N HCl at room temperature for 20 minutes. Mixture was dissociated by pipetting up and down until the suspension became homogenous, transferred to centrifuge tube and centrifuged at 800 rpm for 10 minutes.
Dissolved 5 pNPP tablets in 25 ml DEA buffer. Wells were emptied and washed five times with wash buffer and added 200 μl pNPP solution to each well, plate was covered and allowed to develop in dark for 90 minutes.

DPP-IV = target: T2, DPP-IV (Homo sapiens, UniProt P27487); test: DPP-IV resistant assay; assay type: in vitro ADME; conditions: for half-life at 20 μM: pH 8
T2 construct: purchased Sigma-Aldrich
T2 sequence (P27487 whole entry, species assumed): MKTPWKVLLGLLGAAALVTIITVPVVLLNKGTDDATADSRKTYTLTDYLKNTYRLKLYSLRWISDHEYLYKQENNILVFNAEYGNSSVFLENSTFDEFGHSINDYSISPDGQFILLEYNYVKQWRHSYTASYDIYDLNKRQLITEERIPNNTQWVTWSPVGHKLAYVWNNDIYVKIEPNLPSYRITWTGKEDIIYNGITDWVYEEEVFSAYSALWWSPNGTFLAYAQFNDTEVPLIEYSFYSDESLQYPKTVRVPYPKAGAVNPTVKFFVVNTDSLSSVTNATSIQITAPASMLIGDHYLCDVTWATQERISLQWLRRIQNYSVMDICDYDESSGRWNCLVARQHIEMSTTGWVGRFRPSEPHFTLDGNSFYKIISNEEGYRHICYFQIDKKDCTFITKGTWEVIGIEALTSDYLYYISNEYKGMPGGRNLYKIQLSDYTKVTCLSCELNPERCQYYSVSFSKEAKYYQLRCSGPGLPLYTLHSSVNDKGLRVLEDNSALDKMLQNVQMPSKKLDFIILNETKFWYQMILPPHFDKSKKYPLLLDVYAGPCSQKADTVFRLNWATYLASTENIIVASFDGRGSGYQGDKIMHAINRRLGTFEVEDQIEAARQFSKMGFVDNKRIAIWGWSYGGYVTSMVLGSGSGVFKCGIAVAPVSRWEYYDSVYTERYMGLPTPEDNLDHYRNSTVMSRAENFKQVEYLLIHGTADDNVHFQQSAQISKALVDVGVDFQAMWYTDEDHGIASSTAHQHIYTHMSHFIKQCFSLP
Method: 20 μM of peptides of the present invention (Sequence IDs—01, 02, 03, 04, 05, 06, 11, 12 and 13) were incubated with 60 mU/2 ml of DPP-IV (Sigma-Aldrich) enzyme at room temperature (22-24° C.) in 20 mM Tris HCl buffer, pH 8.0. The aliquots were analyzed for the amount of undegraded peptide concentration at different time intervals by RP-HPLC. The peak area integration was used to determine the amount of undegraded peptide (U.S. Pat. No. 7,067,488). T1/2 of each peptide was determined from the graph plotted between peak area of undegraded peptide vs. time. The peak area of DPP-IV untreated peptide in above mentioned buffer condition of same concentration was considered as time zero. […]

NEP 24.11 = target: T3, NEP 24.11 (Homo sapiens, UniProt P08473); test: NEP 24.11 resistant (degradation) assay; assay type: in vitro ADME; conditions: pH 7.4; for half-life at 20 μM: buffer; for metabolised at 54 h, 20 μM: isolated enzyme neprilysin
T3 construct: purchased Calbiochem
T3 sequence (P08473 whole entry): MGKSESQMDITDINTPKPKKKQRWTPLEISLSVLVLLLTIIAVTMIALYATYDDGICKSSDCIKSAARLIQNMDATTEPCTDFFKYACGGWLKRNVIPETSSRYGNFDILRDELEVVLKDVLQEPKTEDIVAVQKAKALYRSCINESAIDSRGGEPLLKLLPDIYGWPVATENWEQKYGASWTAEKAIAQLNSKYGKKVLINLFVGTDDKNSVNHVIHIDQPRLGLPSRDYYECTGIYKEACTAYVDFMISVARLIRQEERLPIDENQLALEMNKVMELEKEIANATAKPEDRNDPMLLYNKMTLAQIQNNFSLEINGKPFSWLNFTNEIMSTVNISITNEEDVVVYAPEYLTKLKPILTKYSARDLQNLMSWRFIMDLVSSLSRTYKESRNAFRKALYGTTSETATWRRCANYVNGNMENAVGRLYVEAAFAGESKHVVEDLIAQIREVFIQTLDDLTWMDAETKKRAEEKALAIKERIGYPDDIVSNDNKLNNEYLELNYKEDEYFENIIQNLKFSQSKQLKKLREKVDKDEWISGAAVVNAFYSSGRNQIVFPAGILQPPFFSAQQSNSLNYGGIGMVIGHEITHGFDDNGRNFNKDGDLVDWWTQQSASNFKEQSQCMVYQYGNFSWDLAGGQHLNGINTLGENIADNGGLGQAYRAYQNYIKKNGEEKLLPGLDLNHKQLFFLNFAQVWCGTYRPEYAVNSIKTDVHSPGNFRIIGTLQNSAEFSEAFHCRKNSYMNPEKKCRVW
Method: The aliquots were analyzed for the amount of undegraded peptide concentration at different time intervals using RP-HPLC by peak area integration. T1/2 of each peptide was determined from the graph plotted between peak area of undegraded peptide vs time.

C57BL/6 mice = test: Oral Glucose Tolerance Test (OGTT) in C57BL/6 mice, 2 μg per mouse; assay type: in vivo; conditions: 2 μg/mouse intraperitoneally, FIG. 4
Method: A volume of 100 μl of peptides of present invention (2 μg per mouse) were injected intraperitoneally into 6 hr fasted C57BL/6 normal male/female mice (4-6 wk). After 6 h of fasting, fasting glucose level was be assessed by using a Glucometer (Accu-Chek) from tail vein or the retro-orbital sinus. Glucose was given orally at the ratio 1 mg/g body wt. per mouse 5 min after the administration of peptides. Blood glucose levels were assessed at different time points i.e. at 0, 15, 30, 60, 120 and 180 min.
The graph was plotted for blood glucose (mg/dl) level against time.
The saline solution was administered to the female mice as control negative.

Compound | EC50 (GLP-1R) [nM] | Percentage degradation in hrs (DPP-IV) [%] | half-life at 20 μM (DPP-IV) [h] | half-life at 20 μM (NEP 24.11) [h] | metabolised at 54 h, 20 μM (NEP 24.11) [%] | percent reduction in blood glucose (AUC0-60) compared with GLP-1(7-37) parent (C57BL/6 mice)
CC[C@H](C)[C@H](NC(=O)[C@H](Cc1ccccc1)NC(=O)[C@H](CCC(=O)O)NC(=O)[C@H](CCCCN)NC(=O)[C@H](C)NC(=O)[C@H](C)NC(=O)[C@H](CCC(N)=O)NC(=O)CNC(=O)[C@H](CCC(=O)O)NC(=O)[C@H](CC(C)C)NC(=O)[C@H](Cc1ccc(O)cc1)NC(=O)[C@H](CO)NC(=O)[C@H](CO)NC(=O)[C@@H](NC(=O)[C@H](CC(=O)O)NC(=O)[C@H](CO)NC(=O)[C@@H](NC(=O)[C@H](Cc1ccccc1)NC(=O)[C@@H](NC(=O)CNC(=O)c1ccc(CNC(=O)[C@@H](N)Cc2c[nH]cn2)o1)[C@@H](C)O)[C@@H](C)O)C(C)C)C(=O)N[C@@H](C)C(=O)N[C@@H](Cc1c[nH]c2ccccc12)C(=O)N[C@@H](CC(C)C)C(=O)N[C@H](C(=O)N[C@@H](CCCCN)C(=O)NCC(=O)N[C@@H](CCCNC(=N)N)C(=O)NCC(N)=O)C(C)C [Seq ID No. 02] | 0.043 | 43.62 | > 24 | – | – | –
CC[C@H](C)[C@H](NC(=O)[C@H](Cc1ccccc1)NC(=O)[C@H](CCC(=O)O)NC(=O)[C@H](CCCCN)NC(=O)[C@H](C)NC(=O)[C@H](C)NC(=O)[C@H](CCC(N)=O)NC(=O)CNC(=O)[C@H](CCC(=O)O)NC(=O)[C@H](CC(C)C)NC(=O)[C@H](Cc1ccc(O)cc1)NC(=O)[C@H](CO)NC(=O)[C@H](CO)NC(=O)[C@@H](NC(=O)[C@H](CC(=O)O)NC(=O)[C@H](CO)NC(=O)[C@@H](NC(=O)[C@H](Cc1ccccc1)NC(=O)[C@@H](NC(=O)CNC(=O)[C@H](CCC(=O)O)NC(=O)c1ccc(CNC(=O)[C@@H](N)Cc2c[nH]cn2)o1)[C@@H](C)O)[C@@H](C)O)C(C)C)C(=O)N[C@@H](C)C(=O)N[C@@H](Cc1c[nH]c2ccccc12)C(=O)N[C@@H](CC(C)C)C(=O)N[C@H](C(=O)N[C@@H](CCCCN)C(=O)NCC(=O)N[C@@H](CCCNC(=N)N)C(N)=O)C(C)C [Seq ID No. 03] | 0.061 | 13 | > 72 | 29 | 96.8 | –
CC[C@H](C)[C@H](NC(=O)[C@H](Cc1ccccc1)NC(=O)[C@H](CCC(=O)O)NC(=O)[C@H](CCCCN)NC(=O)[C@H](C)NC(=O)[C@H](C)NC(=O)[C@H](CCC(N)=O)NC(=O)CNC(=O)[C@H](CCC(=O)O)NC(=O)[C@H](CC(C)C)NC(=O)[C@H](Cc1ccc(O)cc1)NC(=O)[C@H](CO)NC(=O)[C@H](CO)NC(=O)[C@@H](NC(=O)[C@H](CC(=O)O)NC(=O)[C@H](CO)NC(=O)[C@@H](NC(=O)[C@H](Cc1ccccc1)NC(=O)[C@@H](NC(=O)CNC(=O)[C@H](CCC(=O)O)NC(=O)[C@H]1O[C@H](OC)[C@H](NC(=O)[C@@H](N)Cc2c[nH]cn2)[C@@H](O)[C@@H]1O)[C@@H](C)O)[C@@H](C)O)C(C)C)C(=O)N[C@@H](C)C(=O)N[C@@H](Cc1c[nH]c2ccccc12)C(=O)N[C@@H](CC(C)C)C(=O)N[C@H](C(=O)N[C@@H](CCCCN)C(=O)NCC(=O)N[C@@H](CCCNC(=N)N)C(N)=O)C(C)C [Seq ID No. 06] | 0.838 | – | 4.33 | – | – | –
Seq ID No 01 (H[2Furoyl(5-aminomethyl)]EGTFTSDVSSYLEGQAAKEFIAWLVKGRG-NH2) | – | – | – | – | – | comparable activity to the GLP-1(7-37) parent peptide
CC[C@H](C)[C@H](NC(=O)[C@H](Cc1ccccc1)NC(=O)[C@H](CCC(=O)O)NC(=O)[C@H](CCCCN)NC(=O)[C@H](C)NC(=O)[C@H](C)NC(=O)[C@H](CCC(N)=O)NC(=O)CNC(=O)[C@H](CCC(=O)O)NC(=O)[C@H](CC(C)C)NC(=O)[C@H](Cc1ccc(O)cc1)NC(=O)[C@H](CO)NC(=O)[C@H](CO)NC(=O)C(C)(C)NC(=O)[C@H](CC(=O)O)NC(=O)[C@H](CO)NC(=O)[C@@H](NC(=O)[C@H](Cc1ccccc1)NC(=O)[C@@H](NC(=O)CNC(=O)c1ccc(CNC(=O)[C@@H](N)Cc2c[nH]cn2)o1)[C@@H](C)O)[C@@H](C)O)C(=O)NC(C)(C)C(=O)N[C@@H](Cc1c[nH]c2ccccc12)C(=O)N[C@@H](CC(C)C)C(=O)N[C@H](C(=O)N[C@@H](CCCCN)C(=O)NCC(=O)N[C@@H](CCCNC(=N)N)C(=O)NCC(N)=O)C(C)C [Seq ID No. 10] (H-H[2Furoyl(5-aminomethyl)]GTFTSD[Aib]SSYLEGQAAKEFI[Aib]WLVKGRG-NH2) | 3.38 | – | – | – | – | –
Seq ID No.05 (HGEGTFTSDXSSYLEGQAAKEFIXWLVKGR) | – | – | – | – | – | better activity than GLP-1(7-37) parent peptide
CC[C@H](C)[C@H](NC(=O)[C@H](Cc1ccccc1)NC(=O)[C@H](CCC(=O)O)NC(=O)[C@H](CCCCN)NC(=O)[C@H](C)NC(=O)[C@H](C)NC(=O)[C@H](CCC(N)=O)NC(=O)CNC(=O)[C@H](CCC(=O)O)NC(=O)[C@H](CC(C)C)NC(=O)[C@H](Cc1ccc(O)cc1)NC(=O)[C@H](CO)NC(=O)[C@H](CO)NC(=O)C(C)(C)NC(=O)[C@H](CC(=O)O)NC(=O)[C@H](CO)NC(=O)[C@@H](NC(=O)[C@H](Cc1ccccc1)NC(=O)[C@@H](NC(=O)CNC(=O)[C@H](CCC(=O)O)NC(=O)CNC(=O)[C@@H](N)Cc1c[nH]cn1)[C@@H](C)O)[C@@H](C)O)C(=O)NC(C)(C)C(=O)N[C@@H](Cc1c[nH]c2ccccc12)C(=O)N[C@@H](CC(C)C)C(=O)N[C@H](C(=O)N[C@@H](CCCCN)C(=O)NCC(=O)N[C@@H](CCCNC(=N)N)C(N)=O)C(C)C [Seq ID No. 05] (H-HGEGTFTSD[Aib]SSYLEGQAAKEFI[Aib]WLVKGR-NH2) | 0.083 | – | 24.7 | 49 | 59.4 | –

From patent US20110269680A1 (PANACEA BIOTEC LIMITED, priority 2008, published 2011)
